Assays:
[1] = test system: AKT phosphorylation in THP-1, HL-60, MOLT-4, RPMI-8226, or DLBCL cells; assay: Assay 3: Inhibition of AKT phosphorylation in leukemic cell lines; format: cell-based; conditions: 48 hours, Western Blotting
Procedure: Inhibition of AKT phosphorylation in leukemic cell lines: THP-1, HL-60, MOLT-4, RPMI-8226, or DLBCL cells were incubated with desired concentrations of compound for 48 hours. Cells were lysed and pAKT was determined by Western Blotting. Bands were quantified using ImageJ and normalized to actin.

[2] = Metabolic stability in mouse liver microsomes; format: in vitro ADME; conditions: 1 μM test item, 60 minutes, NADPH
Procedure: (§1) Metabolic stability studies were conducted using mouse, rat, and human liver microsomes. The protocol for the studies with mouse, rat, and human liver microsomes (all from BD Gentest, USA) is provided below. In brief, 0.4 mg protein was preincubated with 2 mM NADPH (cofactor) in phosphate buffer (pH˜7.4) for 15 min at 37° C. and then added with 1 μM test item and incubated further for 60 minutes in triplicate. The reaction mixture was terminated with methanol containing an internal standard and centrifuged further to analyze the test item remaining in the supernatant by LC-MS/MS. The percent parent compound remaining was calculated in comparison with similar samples terminated at 0 minutes.

[3] = target: PI3K delta (Homo sapiens (Human), UniProt O00329); assay: Assay 1: Fluorescent (HTRF) determination of PI3K enzyme activity, delta; format: biochemical
Procedure: (§2) The homogenous time resolved fluorescence (HTRF) assay allows detection of 3,4,5-triphosphate (PIP3) formed as a result of phosphorylation of phosphotidylinositol 4,5-biphosphate (PIP2) by PI3K isoforms such as α, β, γ or δ.
(§3) PI3K isoform activity for α, β, γ or δ was determined using a PI3K human HTRF™ Assay Kit (Millipore, Billerica, Mass.) with modifications. All incubations were carried out at room temperature. […] After the initial incubation, 5 μl/well of 400 μM ATP was added and incubated for an additional 30 minutes. Reaction was terminated by adding 5 μl/well stop solution (Millipore, Billerica, Mass.). Five microliters of detection mix (Millipore, Billerica, Mass.) were then added to each well and was incubated for 6-18 h in the dark. HRTF ratio was measured on a microplate reader (BMG Labtech., Germany) at an excitation wavelength of 337 nm and emission wavelengths of 665 and 620 nm with an integration time of 400 μsec.

[4] = test system: leukemic cells; assay: Assay 5: Apoptosis in leukemic cell lines (in situ Caspase 3 kit); format: cell-based; conditions: 24 hrs
Procedure: Apoptosis in leukemic cells was determined using an in situ Caspase 3 kit (Millipore, US) as outlined below: • Seed leukemic cells at a density of 1×10^6 cells/well in a 6 well plate • Add test compound/DMSO at desired concentrations • Incubate the plate for 24 hrs at 37° C. in 5% CO2 incubator • Collect cells in a 2 ml centrifuge tube • Add 1.6 μL of freshly prepared 5× FLICA reagent and mix cells by slightly flicking the tubes • Incubate tubes for 1 hour at 37° C. under 5% CO2 • Add 2 ml of 1× wash buffer to each tube and mix • Centrifuge cells at <400×g for 5 minutes at room temperature. • Carefully remove and discard supernatant, and gently vortex cell pellet to disrupt any cell-to-cell clumping. • Resuspend cell pellet in 300 ul of 1× wash buffer • Place 100 μL of each cell suspension into each of two wells of a black microtiter plate. Avoid creation of bubbles. • Read […] of each microwell using an excitation wavelength of 490 nm and an emission wavelength of 520 nm • Percent increase in caspase-3 activity manifested by an increase in fluorescence compared to the control blank is to be calculated.

[5] = target: PI3K γ (Homo sapiens (Human), UniProt P48736); assay: Assay 1: Fluorescent (HTRF) determination of PI3K enzyme activity, gamma; format: biochemical
Procedure: as §2
as §3, with “dark.” for “dark. HRTF ratio was measured on a microplate reader (BMG Labtech., Germany) at an excitation wavelength of 337 nm and emission wavelengths of 665 and 620 nm with an integration time of 400 μsec.”

[6] = target: PI3K β (Homo sapiens (Human), UniProt P42338); assay: Assay 1: Fluorescent (HTRF) determination of PI3K enzyme activity, beta; format: biochemical
Procedure: as §2
as §3, with “dark.” for “dark. HRTF ratio was measured on a microplate reader (BMG Labtech., Germany) at an excitation wavelength of 337 nm and emission wavelengths of 665 and 620 nm with an integration time of 400 μsec.”

[7] = test system: AML patient bone marrow leukemic cells; assay: Assay 6-I: Flow cytometry analysis of apoptotic induction in AML patient bone marrow leukemic cells; format: cell-based, human
Procedure: 6-I: Flow cytometry analysis of apoptotic induction in AML patient bone marrow leukemic cells upon compound treatment using Annexin V and 7-AAD staining: Mononuclear cells were extracted by the Ficoll method and seeded in plates. The cells were treated by different compounds for 48 hrs before they were analyzed by flow cytometry. After washing with PBS, 1×10^5 cells were stained by Annexin V-APC and 7-AAD. Annexin V positive staining measures total apoptotic cells, including early and late apoptotic cells. For Annexin V positive cells, 7-AAD negative signal reflects early apoptotic cells.

[8] = Metabolic stability in rat liver microsomes; format: in vitro ADME; conditions: 1 μM test item, 60 minutes, NADPH
Procedure: as §1

[9] = target: PI3Kδ (Homo sapiens (Human), UniProt O00329); assay: Assay 4a: IgM-induced B cell proliferation assay (PI3Kδ); conditions: Cell-based
Procedure: Compound specificity towards PI3Kδ was determined in an IgM-induced B cell proliferation assay. B-cells isolated from blood of healthy subjects were seeded in a 96-well tissue culture plate and incubated with desired concentrations of compound for 30 min. Cells were stimulated with 5 μg/ml purified goat anti-human IgM. Growth was assessed using the 3-[4,5-dimethylthiazol-2-yl]-2,5-diphenyltetrazolium bromide (MTT) dye reduction test. For selectivity against PI3K α, β, or γ isoforms, NIH-3T3 or RAW macrophages were seeded in a 6-well tissue culture plate and incubated overnight. Complete medium was replaced with serum-free media the following day and compound at the desired concentrations were added. After 15 minutes, 20 ng/ml PDGF, 5 μM LPA, or 50 ng/ml c5a was added and incubated for an additional 10 minutes. Cells were lysed and AKT phosphorylation was determined by Western Blotting. Intensity of the bands was determined using ImageJ 1.42q (NIH, USA) and normalized to Actin (loading control).

Chain of PI3K β (P42338 whole entry): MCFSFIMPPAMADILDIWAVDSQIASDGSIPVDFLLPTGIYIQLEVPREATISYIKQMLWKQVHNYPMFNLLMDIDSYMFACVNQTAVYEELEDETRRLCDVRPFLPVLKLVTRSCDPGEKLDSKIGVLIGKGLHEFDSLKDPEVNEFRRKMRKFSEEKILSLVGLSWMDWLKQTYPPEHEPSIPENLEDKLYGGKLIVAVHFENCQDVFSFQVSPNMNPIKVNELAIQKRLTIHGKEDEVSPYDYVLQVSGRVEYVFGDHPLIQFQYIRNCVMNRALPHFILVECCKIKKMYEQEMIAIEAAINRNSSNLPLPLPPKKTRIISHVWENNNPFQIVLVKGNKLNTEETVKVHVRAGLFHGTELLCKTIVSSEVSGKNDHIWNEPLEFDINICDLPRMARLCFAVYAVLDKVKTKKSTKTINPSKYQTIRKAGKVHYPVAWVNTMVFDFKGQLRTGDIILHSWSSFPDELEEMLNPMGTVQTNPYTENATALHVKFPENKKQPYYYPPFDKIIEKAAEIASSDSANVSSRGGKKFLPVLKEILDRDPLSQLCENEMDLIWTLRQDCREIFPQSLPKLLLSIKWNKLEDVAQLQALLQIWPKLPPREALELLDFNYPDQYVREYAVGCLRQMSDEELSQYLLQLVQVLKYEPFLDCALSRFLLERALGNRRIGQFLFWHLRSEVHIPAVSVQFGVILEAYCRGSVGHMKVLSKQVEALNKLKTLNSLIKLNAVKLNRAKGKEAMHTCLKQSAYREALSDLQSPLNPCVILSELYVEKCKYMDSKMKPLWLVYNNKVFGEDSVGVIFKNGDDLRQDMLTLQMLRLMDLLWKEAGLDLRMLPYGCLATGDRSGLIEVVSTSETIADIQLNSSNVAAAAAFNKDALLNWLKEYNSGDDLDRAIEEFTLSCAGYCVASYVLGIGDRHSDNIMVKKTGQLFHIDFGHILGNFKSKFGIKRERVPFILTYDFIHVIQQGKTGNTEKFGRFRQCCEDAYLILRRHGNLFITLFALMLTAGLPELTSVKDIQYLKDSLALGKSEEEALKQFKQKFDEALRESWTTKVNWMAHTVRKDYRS
Chain of PI3K β (P27986 whole entry partner): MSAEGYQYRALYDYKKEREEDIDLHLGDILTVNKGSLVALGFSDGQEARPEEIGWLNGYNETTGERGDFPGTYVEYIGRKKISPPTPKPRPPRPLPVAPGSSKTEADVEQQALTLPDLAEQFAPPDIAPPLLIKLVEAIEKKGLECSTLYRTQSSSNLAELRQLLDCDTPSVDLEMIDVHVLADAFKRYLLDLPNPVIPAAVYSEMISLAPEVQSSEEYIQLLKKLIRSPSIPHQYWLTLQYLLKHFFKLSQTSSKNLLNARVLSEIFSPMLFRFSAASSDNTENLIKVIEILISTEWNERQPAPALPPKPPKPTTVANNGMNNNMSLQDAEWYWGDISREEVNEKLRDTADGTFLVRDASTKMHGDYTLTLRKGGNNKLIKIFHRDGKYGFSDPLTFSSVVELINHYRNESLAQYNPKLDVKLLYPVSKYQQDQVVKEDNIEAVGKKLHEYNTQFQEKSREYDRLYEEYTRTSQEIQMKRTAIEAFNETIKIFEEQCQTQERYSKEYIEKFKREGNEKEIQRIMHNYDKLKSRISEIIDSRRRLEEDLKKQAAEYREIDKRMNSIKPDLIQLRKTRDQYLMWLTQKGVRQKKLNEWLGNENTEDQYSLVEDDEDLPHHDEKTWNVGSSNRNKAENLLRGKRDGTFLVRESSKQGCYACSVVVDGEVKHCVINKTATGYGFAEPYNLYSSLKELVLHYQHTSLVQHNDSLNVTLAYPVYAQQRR
Chain of PI3K γ (P48736 whole entry): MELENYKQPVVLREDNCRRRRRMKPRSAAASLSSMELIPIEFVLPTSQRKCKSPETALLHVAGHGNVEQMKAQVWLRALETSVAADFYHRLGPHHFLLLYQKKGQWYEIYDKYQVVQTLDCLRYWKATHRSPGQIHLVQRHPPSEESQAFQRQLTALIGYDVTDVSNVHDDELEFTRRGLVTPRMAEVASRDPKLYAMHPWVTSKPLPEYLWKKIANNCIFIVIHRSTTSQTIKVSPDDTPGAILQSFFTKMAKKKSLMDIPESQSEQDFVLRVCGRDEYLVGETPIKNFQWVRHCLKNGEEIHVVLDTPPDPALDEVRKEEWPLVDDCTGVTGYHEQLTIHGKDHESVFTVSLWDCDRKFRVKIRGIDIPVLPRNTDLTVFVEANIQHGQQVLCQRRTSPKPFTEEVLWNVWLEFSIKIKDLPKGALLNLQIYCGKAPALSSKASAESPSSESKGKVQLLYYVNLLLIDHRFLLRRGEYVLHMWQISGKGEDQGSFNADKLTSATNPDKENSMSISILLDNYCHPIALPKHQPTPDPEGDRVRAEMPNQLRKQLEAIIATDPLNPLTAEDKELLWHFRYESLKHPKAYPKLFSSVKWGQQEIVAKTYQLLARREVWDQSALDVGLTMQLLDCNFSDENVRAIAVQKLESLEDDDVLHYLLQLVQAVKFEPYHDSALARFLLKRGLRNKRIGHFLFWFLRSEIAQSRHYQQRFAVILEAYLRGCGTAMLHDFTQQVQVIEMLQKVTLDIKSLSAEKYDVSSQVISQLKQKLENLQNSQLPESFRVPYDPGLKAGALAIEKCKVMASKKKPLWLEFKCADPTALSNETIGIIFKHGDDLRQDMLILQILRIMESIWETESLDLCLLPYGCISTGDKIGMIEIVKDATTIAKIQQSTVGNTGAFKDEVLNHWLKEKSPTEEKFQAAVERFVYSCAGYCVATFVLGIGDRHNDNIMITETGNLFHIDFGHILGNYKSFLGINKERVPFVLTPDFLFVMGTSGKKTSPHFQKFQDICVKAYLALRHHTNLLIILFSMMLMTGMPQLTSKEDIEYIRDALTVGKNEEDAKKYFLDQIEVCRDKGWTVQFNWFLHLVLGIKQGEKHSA
Chain of PI3Kδ (O00329 whole entry, canonical isoform): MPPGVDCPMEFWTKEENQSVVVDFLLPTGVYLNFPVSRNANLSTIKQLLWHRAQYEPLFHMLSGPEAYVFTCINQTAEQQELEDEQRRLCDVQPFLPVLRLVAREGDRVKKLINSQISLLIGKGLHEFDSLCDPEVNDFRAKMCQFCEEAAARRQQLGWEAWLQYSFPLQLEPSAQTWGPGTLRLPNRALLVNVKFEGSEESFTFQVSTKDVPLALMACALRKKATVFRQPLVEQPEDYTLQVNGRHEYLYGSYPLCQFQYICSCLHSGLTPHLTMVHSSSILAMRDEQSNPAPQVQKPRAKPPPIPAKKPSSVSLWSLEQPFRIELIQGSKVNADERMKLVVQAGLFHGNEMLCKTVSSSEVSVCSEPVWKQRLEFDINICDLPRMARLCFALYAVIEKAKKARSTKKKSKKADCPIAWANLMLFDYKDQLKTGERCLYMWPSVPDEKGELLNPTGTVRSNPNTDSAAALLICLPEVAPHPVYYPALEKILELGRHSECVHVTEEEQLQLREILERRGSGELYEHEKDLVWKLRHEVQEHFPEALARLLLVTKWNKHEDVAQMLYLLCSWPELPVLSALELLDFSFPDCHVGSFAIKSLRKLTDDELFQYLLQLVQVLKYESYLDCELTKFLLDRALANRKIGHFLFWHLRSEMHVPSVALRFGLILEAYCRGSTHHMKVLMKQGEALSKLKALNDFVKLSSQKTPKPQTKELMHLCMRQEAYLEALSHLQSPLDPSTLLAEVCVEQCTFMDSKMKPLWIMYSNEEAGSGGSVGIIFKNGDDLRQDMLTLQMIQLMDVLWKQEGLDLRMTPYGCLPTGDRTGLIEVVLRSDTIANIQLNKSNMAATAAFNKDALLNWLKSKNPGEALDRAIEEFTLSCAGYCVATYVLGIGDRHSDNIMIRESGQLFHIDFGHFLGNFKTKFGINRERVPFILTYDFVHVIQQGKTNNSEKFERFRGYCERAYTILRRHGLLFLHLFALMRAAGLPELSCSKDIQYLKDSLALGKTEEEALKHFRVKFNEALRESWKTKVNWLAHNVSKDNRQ
Chain of PI3Kδ (P27986 whole entry partner, canonical isoform): as the sequence (P27986 whole entry partner) above
Chain of PI3K delta (O00329 whole entry, canonical isoform): as the sequence (O00329 whole entry, canonical isoform) above
Chain of PI3K delta (P27986 whole entry partner, canonical isoform): as the sequence (P27986 whole entry partner) above

CC(C)Oc1ccc(-c2nn([C@@H](C)c3oc4ccccc4c(=O)c3-c3cccc(F)c3)c3ncnc(N)c23)cc1F [Compound A1, (S)-2-(1-(4-amino-3-(3-fluoro-4-isopropoxyphenyl)-1H-pyrazolo[3,4-d]pyrimidin-1-yl)ethyl)-3-(3-fluorophenyl)-4H-chromen-4-one]
inhibition at 1 µM [1]: 50 to 90% | Metabolic stability in liver microsomes, Mouse (percent parent compound remaining) [2]: 46.1% | IC50 [3]: 13.8 nM | Caspase-3 activity [4]: dose-dependently induced Caspase-3 activity | inhibition at 1 µM [5]: 80.6% | Fold-Selectivity PI3Kγ ([5]; Enzyme, versus PI3Kδ): >9 fold | inhibition at 1 µM [6]: 47.9% | Fold-Selectivity PI3Kβ ([6]; Enzyme, versus PI3Kδ): >54 fold | number of apoptotic cells [7]: concomitant increase in the number of apoptotic cells | fold increase in apoptosis ([7]; 3 μM, 48 hrs): ~1.5 fold increase in appotosis @ 3 μM and | Metabolic stability in liver microsomes, Rat (percent parent compound remaining) [8]: 35.8% | EC50 [9]: < 50 nM
